How the values were obtained:
bacteremia = test: monthly incidence of bacteremia in outpatient hemodialysis unit by catheter lock solution; type: in vivo, human patients
[1] = urokinase use to open occluded or low-flowing tunneled catheters / clotting of catheters in dialysis unit; type: in vivo, human patients; conditions: satellite outpatient hospital unit, Jan 1998-May 1999

heparin
incidence of bacteremia, percent of patients in the unit per month (bacteremia; RTC unit, 70 patients, about 60% with tunneled catheters, heparin Jan-Jul 1998, citrate locks Sep 1998-Jul 1999, 47% citrate May-Jul 1999): 4.6% | incidence of bacteremia, all other months (bacteremia; satellite outpatient hospital unit, 20 ESRD patients, Jan 1998-May 1999): zero | incidence of bacteremia, percent of all patients, the one month with a case (bacteremia; satellite outpatient hospital unit, 20 ESRD patients, Jan 1998-May 1999, one patient in one month): 5% | urokinase use [1]: remained low

From patent publication US20050215978A1, “Method of enhancing catheter patency using a citrate salt catheter lock solution” (priority 2001, published 2005)
